From patent US10702518B2, “TAF1 inhibitors for the therapy of cancer” (CeMM—Forschungszentrum für Molekulare Medizin GmbH, priority 2016, dated 2020)

What was measured:
[1] = test system: THP1 cells; assay: AnnexinV apoptosis assay in THP1 cells; conditions: 72 hours
Experimental: (f) Quantification of AnnexinV positive cells from immunofluorescence images. […] At least 3 biological replicates were performed and more than 1,500 cells were quantified for each point (mean±STD).
Apoptotic cells were detected using the Annexin V-FITC Apoptosis detection kit (Abcam) according to the manufacturer's instruction. Apoptosis quantification was performed with the Harmony software (PerkinElmer) for nuclei and cytoplasm detection and analysis, adapted for the nucleus diameter range and cell shape of the specific cell line used.

[2] = test system: REDS3 cells; assay: RFP reporter expression in REDS3 cells (live cell imaging); format: cell-based, human; conditions: for confirmed screening hit (RFP induction in REDS3 screen): library screen of 89,355 small molecules; for RFP expression in REDS3 cells: single agent
Experimental: Cells were seeded on clear flat bottom 96-well or 384-well plates (Corning) and treated with the indicated compounds for the specified conditions. Live cell imaging pictures were taken with the Operetta High Content Screening System (PerkinElmer), 20× objective and non-confocal mode.
Only RFP-positive nuclei were detected and counted.
The increase of RFP fluorescence, detected with the Operetta High Content Screening System (PerkinElmer), 20× objective and non-confocal mode, was used as read-out.
Briefly, the screening was divided in three parts called respectively 1) primary screening, 2) follow up and 3) validation. During the primary screening REDS3 cells were treated with 10 μM of every compound, and live cell imaging pictures were taken in order to assess their ability to induce RFP expression 24 hours later.

[3] = test system: KBM7 cells; assay: CellTiterGlo viability of control and TAF1 downregulated KBM7 cells; conditions: shRNA TAF1 vs control, 96 hours
[4] = test system: THP1 cells; assay: Cell cycle assay in THP1 cells; conditions: 48 hours
Experimental: (e) Quantification of cells in S-phase by staining the nuclei with PI and analyzing DNA content by FACS. […] Three different biological replicates were performed and 30,000 cells were analysed each time (mean±STD).
For cell cycle analysis, cells were fixed with 70% ethanol for 24 hours, washed with PBS/0.1%-Tween and incubated with RNase for 20 minutes. Nuclei were stained with 5 μg/ml PI (propidium iodide, Sigma) for 10 minutes prior to FACS analysis (BD FACSCalibur Flow Cytometer).

[5] = test system: c-MYC expression in WT-KBM7; assay: c-MYC expression by RT-PCR in WT-KBM7; format: cell-based, human; conditions: 1, 10 and 20 μM, 24 hours
Experimental: (c) Percentage of c-MYC expression in WT-KBM7 treated with the selected compounds, assessed by RT-PCR. 1, 10 and 20 μM of each compound were used to treat cells for 24 hours; DMSO was used as negative control and (S)-JQ1 as positive control. Three biological replicates were performed (mean±STD).
RNA extraction was performed with TRIzol Reagent (Life Technologies) according to the manufacturer's protocol and Reverse Transcription (RT) was performed using the High Capacity cDNA Reverse Transcription Kit (Applied Biosystems) following the standard protocol.
QPCR was performed using the Power SYBR Green Master mix (Invitrogen) as described in the manufacturer's protocol.
Real-time amplification results were normalized to the endogenous housekeeping genes Actin or GAPDH. The relative quantities were calculated using the comparative CT (Cycle Threshold) Method (ΔΔCT Method).

[6] = target: T1, TAF1(BD2) (Homo sapiens, UniProt P21675); assay: BROMOscan binding constant determination for TAF1(BD2); conditions: 11-point 3-fold dilution series, read-out: TAF1_BD2 (IC50 μM)
T1 construct: the second bromodomain of TAF1 (TAF1 (2)); purchased DiscoverX Corporation (contract assay); host or cells: T7 phage in E. coli host derived from BL21
T1 sequence (P21675 1519-1628 limits assumed): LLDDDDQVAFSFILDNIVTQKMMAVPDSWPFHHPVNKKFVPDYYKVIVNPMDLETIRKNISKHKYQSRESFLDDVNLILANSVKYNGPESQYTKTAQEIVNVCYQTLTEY
Experimental: Bromodomain assays: T7 phage strains displaying bromodomains were grown in parallel in 24-well blocks in an E. coli host derived from the BL21 strain. E. coli were grown to log-phase and infected with T7 phage from a frozen stock (multiplicity of infection=0.4) and incubated with shaking at 32° C. until lysis (90-150 minutes). The lysates were centrifuged (5,000×g) and filtered (0.2 μm) to remove cell debris. Streptavidin-coated magnetic beads were treated with biotinylated small molecule or acetylated peptide ligands for 30 minutes at room temperature to generate affinity resins for bromodomain assays. The liganded beads were blocked with excess biotin and washed with blocking buffer (SeaBlock (Pierce), 1% BSA, 0.05% Tween 20, 1 mM DTT) to remove unbound ligand and to reduce non-specific phage binding. […] Test compounds were prepared as 1000× stocks in 100% DMSO. Kds were determined using an 11-point 3-fold compound dilution series with one DMSO control point. […] The compounds were then diluted directly into the assays such that the final concentration of DMSO was 0.09%. All reactions performed in polypropylene 384-well plates. Each was a final volume of 0.02 ml. […] The bromodomain concentration in the eluates was measured by qPCR.
Compound handling: An 11-point 3-fold serial dilution of each test compound was prepared in 100% DMSO at 1000× final test concentration. […] The compounds were then diluted directly into the assays such that the final concentration of DMSO was 0.09%. Most Kds were determined using a compound top concentration=10,000 nM. If the initial Kd determined was <0.169 nM (the lowest concentration tested), the measurement was repeated with a serial dilution starting at a lower top concentration.
Binding constants (Kds) were calculated with a standard dose-response curve using the Hill equation: […]
The Hill Slope was set to −1. Curves were fitted using a non-linear least square fit with the Levenberg-Marquardt algorithm.
The results thus obtained are reported in the following table as IC50 values [μM] for TAF1(BD2).

[7] = target: T1, TAF1(BD2); assay: BROMOscan primary screen, binding to TAF1(BD2); conditions: for TAF1_BD2 (% inhibition at 1 μM): 1 μM compound, DMSO = 0%, 30 μM BI2536 = 100% inhibition; for inhibition at 1 µM: read-out: TAF1_BD2 (% inhibition at 1 μM)
Experimental: The binding of these compounds to TAF1 was tested by DiscoverX Corporation (Fremont, Calif., USA) in a primary screen using the BROMOscan assay, which is a ligand binding site-directed competition assay that allows to quantitatively measure interactions between test compounds and bromodomains (see Fabian et al., 2005 for an explanation of the principle of this assay), according to the following protocol:
Bromodomain assays: T7 phage strains displaying bromodomains were grown in parallel in 24-well blocks in an E. coli host derived from the BL21 strain. E. coli were grown to log-phase and infected with T7 phage from a frozen stock (multiplicity of infection=0.4) and incubated with shaking at 32° C. until lysis (90-150 minutes). The lysates were centrifuged (5,000×g) and filtered (0.2 μm) to remove cell debris. Streptavidin-coated magnetic beads were treated with biotinylated small molecule or acetylated peptide ligands for 30 minutes at room temperature to generate affinity resins for bromodomain assays. The liganded beads were blocked with excess biotin and washed with blocking buffer (SeaBlock (Pierce), 1% BSA, 0.05% Tween 20, 1 mM DTT) to remove unbound ligand and to reduce non-specific phage binding. […] Test compounds were prepared as 1000× stocks in 100% DMSO and subsequently diluted 1:25 in monoethylene glycol (MEG). The compounds were then diluted directly into the assays such that the final concentrations of DMSO and MEG were 0.1% and 2.4%, respectively. All reactions were performed in polypropylene 384-well plates in a final volume of 0.02 ml. […] The bromodomain concentration in the eluates was measured by qPCR.

[8] = test system: THP1 cells; assay: Cell viability of THP1 cells, combination with (S)-JQ1; format: cell-based, human
[9] = target: T2, TAF1 (2) (Homo sapiens, UniProt P21675); assay: BromoScan / BromoELECT / BromoKdELECT, TAF1 (2); format: binding; conditions: 10 μM; for binding to TAF1 (2): BromoScan/BromoELECT
T2 construct: the second bromodomain of TAF1 (TAF1 (2)); purchased DiscoverX Corporation (contract assay); host or cells: T7 phage in E. coli host derived from BL21
T2 sequence (P21675 1519-1628 limits assumed): T1 sequence (P21675 1519-1628 limits assumed)
Experimental: (§1) Bubbles indicate the percentage of inhibition of the binding of the analyzed bromodomains to an acetylated substrate. […] (g) BromoKdELECT assay for CeMMEC1 against TAF1 (2). […] (i) Docking of CeMMEC1 to the second bromodomain of TAF1. 3D model (top panel) and 2D ligand interaction diagram (bottom panel). Red dots in the 3D model indicate water molecules.
(§2) (c) not used (d) KinomeScan profile for CeMMEC1 (10 μM). Bubbles indicate the percentage of inhibition of the binding of the analyzed kinase to an immobilized ligand.

[10] = test system: H23 cells; assay: Cell viability of H23 cells, combination with (S)-JQ1; format: cell-based
[11] = target: CREBBP (Homo sapiens, UniProt Q92793); assay: BromoScan / BromoELECT / BromoKdELECT, CREBBP; format: binding; conditions: BromoScan/BromoELECT, 10 μM
Sequence of CREBBP (Q92793 1085-1192 limits assumed): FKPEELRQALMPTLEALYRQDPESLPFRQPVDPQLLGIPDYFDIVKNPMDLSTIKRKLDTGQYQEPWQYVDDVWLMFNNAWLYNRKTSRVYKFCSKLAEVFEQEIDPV
Experimental: as §1, §2

## Cc1sc2c(c1C)C(c1ccc(Cl)cc1)=N[C@@H](CC(=O)OC(C)(C)C)c1nnc(C)n1-2 [(S)-JQ1, reference compound]
[1]
  apoptosis (AnnexinV staining): induced apoptosis
[2]; 24 hours
  lowest concentration causing full activation of RFP signal: 0.5 µM
  confirmed screening hit (RFP induction in REDS3 screen): part of this group
[2]
  RFP expression in REDS3 cells: clear and robust increase of RFP expression
[3]
  cell viability with TAF1 downregulation: Downregulation of TAF1 decreased cell viability when (S)-JQ1 was used at concentrations not able to affect control cells
[4]
  number of cells in S-phase: clear and dose-dependent decrease of the number of cells in S-phase

## CC[C@@H]1C(=O)N(C)c2cnc(Nc3ccc(C(=O)NC4CCN(C)CC4)cc3OC)nc2N1C1CCCC1 [BI-2536]
[2]; 24 hours
  confirmed screening hit (RFP induction in REDS3 screen): part of this group

## COc1ccc(CCc2nc3cc(-c4c(C)noc4C)ccc3n2C[C@H](C)N2CCOCC2)cc1Cl [CBP30]
[2]; 10 μM, 24 hours
  increase of RFP-positive cells compared to DMSO treated cells: 1.5 fold

## Cc1nnc2ccc(NCCC3=CCCCC3)nn12 [CeMMEC2]
[5]
  c-MYC expression: capable of reducing the expression of this oncogene in a dose-dependent manner
[1]
  apoptosis (AnnexinV staining): induced apoptosis
[3]
  cell viability with TAF1 downregulation: synergism
[4]
  number of cells in S-phase: clear and dose-dependent decrease of the number of cells in S-phase

## Cn1c(=O)cc(C(=O)Nc2ccc3c(c2)OCCO3)c2ccccc21 [Compound 4-1]
[6]
  IC50: 0.25 µM
[7]
  TAF1_BD2 (% inhibition at 1 μM): 89%

## COc1ccc(NC(=O)c2cc(=O)n(C)c3ccccc23)cc1 [Compound 4-2]
[7]
  inhibition at 1 µM: 9%

## Cn1c(=O)cc(C(=O)Nc2ccc(OC(F)(F)F)cc2)c2ccccc21 [Compound 4-3]
[7]
  inhibition at 1 µM: 20%

## COc1cc(NC(=O)c2cc(=O)n(C)c3ccccc23)cc(OC)c1 [Compound 4-4]
[7]
  inhibition at 1 µM: 48%

## Cn1ccc(C(=O)Nc2ccc3c(c2)OCCO3)cc1=O [Compound 4-10]
[7]
  inhibition at 1 µM: 3%

## Cn1ccc(C(=O)Nc2ccc(OC(F)(F)F)cc2)cc1=O [Compound 4-13]
[7]
  inhibition at 1 µM: 3%

## COc1cc(NC(=O)c2ccn(C)c(=O)c2)cc(OC)c1 [Compound 4-14]
[7]
  inhibition at 1 µM: 20%

## COc1ccc(C(=O)Nc2cccc3c(=O)n(C)ccc23)cc1 [Compound 4-16]
[7]
  inhibition at 1 µM: 34%

## Cn1ccc2c(NC(=O)c3ccc(OC(F)(F)F)cc3)cccc2c1=O [Compound 4-17]
[7]
  inhibition at 1 µM: 11%

## Cn1c(=O)ccc2c(C(=O)Nc3ccc4c(c3)OCCO4)cccc21 [Compound 4-24]
[7]
  inhibition at 1 µM: 58%

## Cn1c(=O)ccc2c(NC(=O)c3ccc4c(c3)CCCO4)cccc21 [Compound 4-25]
[7]
  TAF1_BD2 (% inhibition at 1 μM): 4%

## COc1ccc(C(=O)Nc2cccc3c2ccc(=O)n3C)cc1 [Compound 4-26]
[6]
  IC50: 0.056 µM
[7]
  TAF1_BD2 (% inhibition at 1 μM): 82%

## COc1cc(OC)cc(C(=O)Nc2cccc3c2ccc(=O)n3C)c1 [Compound 4-28]
[7]
  inhibition at 1 µM: 50%

## Cn1c2c(ccc1=O)C(NC(=O)c1ccc3c(c1)OCCO3)CCC2 (stereo not shown) [Compound 4-29]
[7]
  inhibition at 1 µM: 32%

## COc1ccc(C(=O)NC2CCCc3c2ccc(=O)n3C)cc1 (stereo not shown) [Compound 4-31]
[7]
  inhibition at 1 µM: 34%

## Cn1c2c(ccc1=O)C(NC(=O)c1ccc(OC(F)(F)F)cc1)CCC2 (stereo not shown) [Compound 4-32]
[7]
  inhibition at 1 µM: 10%

## COc1cc(OC)cc(C(=O)NC2CCCc3c2ccc(=O)n3C)c1 (stereo not shown) [Compound 4-33]
[7]
  inhibition at 1 µM: 11%

## Cn1c(=O)cc(C(=O)Nc2ccc3c(c2)OCCO3)c2ccccc21 [Compound 29]
[8]
  synergy with (S)-JQ1 (Bliss independence test): the most effective
[9]; BromoELECT
  selectivity among BRD4 (1), BRD9, CREBBP, EP300 and TAF1 (2): high selectivity for the TAF1 (2) bromodomain
[9]
  binding to TAF1 (2): retaining TAF1 activity
[6]
  IC50: 3.1 µM
[2]
  RFP expression in REDS3 cells in combination with (S)-JQ1: further boosted RFP expression beyond the increase in single treatments
  RFP expression in REDS3 cells: comparable induction of RFP expression in REDS3 cells
[10]
  synergy with (S)-JQ1 (Bliss independence test): the most effective
[11]
  binding to CREBBP: lost all affinity to CREBBP

## Cn1ccc2c(NC(=O)c3ccc4c(c3)OCCO4)cccc2c1=O [Compound 30]
[9]
  binding to TAF1 (2): retaining TAF1 activity
[6]
  IC50: 4 µM
[2]
  RFP expression in REDS3 cells in combination with (S)-JQ1: further boosted RFP expression beyond the increase in single treatments
  RFP expression in REDS3 cells: comparable induction of RFP expression in REDS3 cells
[11]
  binding to CREBBP: lost all affinity to CREBBP

## COc1cc2c(cc1-c1c(C)noc1C)ncc1[nH]c(=O)n([C@H](C)c3ccccn3)c12 [I-BET151]
[2]; 24 hours
  confirmed screening hit (RFP induction in REDS3 screen): part of this group

## CCC(=O)N1CCOc2c(cc(-c3ccc(OC)c(OC)c3)cc2OC[C@H]2CCCN(C)C2)C1 [I-CBP112]
[2]
  RFP expression in REDS3 cells: No RFP expression was detected

## Cc1sc2c(c1C)C(c1ccc(Cl)cc1)=N[C@@H](CC(=O)Nc1ccc(O)cc1)c1nnc(C)n1-2 [OXT015]
[2]; 24 hours
  confirmed screening hit (RFP induction in REDS3 screen): part of this group

## COc1ccccc1S(=O)(=O)Nc1ccc2c(c1)CN(C)C(=O)N2 [PFI1]
[2]; 24 hours
  confirmed screening hit (RFP induction in REDS3 screen): part of this group

## CCCCCCCCCCCCCC(=O)O[C@@H]1[C@@H](C)[C@@]2(O)[C@@H](C=C(CO)C[C@]3(O)C(=O)C(C)=C[C@@H]23)[C@@H]2C(C)(C)[C@]12OC(C)=O [PMA, phorbol myristate acetate]
[2]
  RFP expression in REDS3 cells: No increase of RFP-positive nuclei was observed

## COc1cc(OC)c2c(=O)[nH]c(-c3cc(C)c(OCCO)c(C)c3)nc2c1 [RVX208]
[2]; 24 hours
  confirmed screening hit (RFP induction in REDS3 screen): part of this group

## Cc1cnc(Nc2ccc(OCCN3CCCC3)cc2)nc1Nc1cccc(S(=O)(=O)NC(C)(C)C)c1 [TG-101348]
[2]; 24 hours
  confirmed screening hit (RFP induction in REDS3 screen): part of this group

## phytohemagglutinin [PHA]
[2]
  RFP expression in REDS3 cells: No increase of RFP-positive nuclei was observed
